Laboratory results reported in patent US7960397B2, “6,9-disubstituted purine derivatives and their use as cosmetics and cosmetic compositions” (Institute of Experimental Botany, Academy of Sciences of …, priority 2007, dated 2011).

Legend:
[1] = test system: Amaranthus caudatus cotyledon/hypocotyl explants; test: Amaranthus bioassay (betacyanin content); design: species or system Amaranthus caudatus var. atropurpurea; conditions: for concentration with highest activity: betacyanin content after 48 h incubation, tested 10^−8 M to 10^−4 M; for Activity (%) [10^−5 mol · l^−1 BAP = 100%]: betacyanin content at the concentration with highest activity, 10^−5 M BAP = 100%
Protocol: Testing of novel compounds for typical cytokinin activity in Amaranthus bioassay. A standard Amaranthus bioassay was performed with several modifications. The seeds of Amaranthus caudatus var. atropurpurea were surface-sterilized in 10% (w/v) N-chlorobenzenesulfonamide for 10 min and washed 5 times with deionized water. They were placed in 14 cm Petri dishes containing paper tissues saturated with deionized water. After 72 h of cultivation at 25° C. in darkness, the roots of the seedlings were cut off. The explants, consisting of two cotyledons and hypocotyls, were placed in 5 cm Petri dishes onto two layers of filter paper soaked with 1 ml of the incubation medium containing 10 mmol of NA2HPO4—KH2PO4, pH 6.8, 5 mmol of tyrosine and the compound to be tested. There were 20 explants per dish. The procedure was carried out under a green safe light in a darkroom. […] The concentration of betacyanin was determined from the absorbencies at 537 nm and 620 nm as follows: DA=A537 nm−A620 nm. […] Relative activity of the compound at this concentration was calculated. The activity obtained for 10^−5 M 6-benzylaminopurine (BAP) was defined as 100%.
(§1) The compounds to be tested were dissolved in dimethylsulfoxide (DMSO) and the solution brought up to 10^−3 M with distilled water.

[2] = test system: cytokinin-dependent tobacco callus Nicotiana tabacum L. cv. Wisconsin 38; test: Cytokinin activity in tobacco callus bioassay; assay type: cell-based; conditions: for concentration with highest activity: growth of tobacco callus, four weeks of cultivation, tested 10^−8 M to 10^−4 M; for Activity (%) [10^−5 mol · l^−1 BAP = 100%]: increase of fresh callus weight at the concentration with highest activity, 10^−5 M BAP = 100%
Protocol: Estimation of cytokinin biological activity of novel compounds in callus bioassay. Cytokinin-dependent tobacco callus Nicotiana tabacum L. cv. […] Subcultivation was carried out every three weeks. Fourteen days before the bioassay, the callus tissue was transferred to the media without the compound tested. The biological activity was determined from the increase of the fresh callus weight after four weeks of cultivation. Five replicates were prepared for each concentration of the compound tested and the entire test was repeated twice. […] The relative activity of the compound at this concentration was calculated (Table 8). […] The compounds to be tested were dissolved in dimethylsulfoxide (DMSO) and the solution brought up to 10^−3 M with distilled water. This stock solution was further diluted with the respective media used for the biotest to a concentration ranging from 10^−8 M to 10^−4 M.

[3] = test system: excised wheat leaf tips; test: Antisenescence test, retention of chlorophyll in excised wheat leaf tips; design: species or system Triticum aestivum cv. Hereward; conditions: for activity (%) [10^−4 mol · l^−1 BAP = 100%]: retention of chlorophyll in excised wheat leaf tips at the concentration with highest activity, 10 replicate determinations; for concentration with highest activity: retention of chlorophyll in excised wheat leaf tips, tested range 10^−8 M to 10^−4 M, 96 h in the dark at 25° C.
Protocol: Testing of antisenescence properties of novel cytokinin compounds on wheat leaf segments. Seeds of winter wheat, Triticum aestivum cv. Hereward, were washed under running water for 24 hours and then sown on vermiculite soaked with the Knop's solution. They were placed in the grow chamber at 25° C. with a 16 h-8 h light period at 50 mmol.m^−2.s^−1. After 7 days, the first leaf was fully developed and the second leaf had started to grow. A 35 mm long tip section of the first leaf, was removed from each of 5 seedlings and trimmed slightly to a combined weight of 100 mg. The basal ends of the five leaf tips were placed in the wells of a microtiter polystyrene plate containing […] of the solution of the tested compound each. The entire plate was inserted into a plastic box lined with paper tissues soaked with distilled water to prevent leaf sections from drying out. After 96 h incubation in the dark at 25° C., the leaves were removed and chlorophyll was extracted by heating at 80° C. for 10 min in 5 ml of 80% ethanol (v/v). The sample volume was then restored to 5 ml by the addition of 80% ethanol (v/v). The absorbance of the extract was recorded at 665 nm. In addition, chlorophyll extracts from fresh leaves and leaf tips incubated in deionized water were measured. […] Relative activity of the compound at this concentration was calculated (Table 7). The activity obtained for 10^−4 M 6-benzylaminopurine (BAP) was defined as 100%. The values shown are means of five replicates and the whole experiment was repeated twice.
as §1

| SMILES | concentration with highest activity [1] | Activity (%) [10^−5 mol · l^−1 BAP = 100%] [1] | concentration with highest activity [2] | Activity (%) [10^−5 mol · l^−1 BAP = 100%] [2] | activity (%) [10^−4 mol · l^−1 BAP = 100%] [3] | concentration with highest activity [3] |
| --- | --- | --- | --- | --- | --- | --- |
| COc1cccc(CNc2ncnc3c2ncn3CCCCCl)c1O | 10^−4 mol · l^−1 | 53% | – | – | – | – |
| Oc1ccc(CNc2ncnc3c2ncn3C2CCCCO2)c(O)c1 (stereo not drawn) | – | – | 10^−5 mol · l^−1 | 5% | – | – |
| Oc1ccc(O)c(CNc2ncnc3c2ncn3C2CCCCO2)c1 (stereo not drawn) | 10^−4 mol · l^−1 | 35.1% | 10^−5 mol · l^−1 | 20% | 15% | 10^−4 mol · l^−1 |
| COc1ccc(CNc2ncnc3c2ncn3C2CCCO2)cc1O (stereo not drawn) | 10^−4 mol · l^−1 | 32% | 10^−6 mol · l^−1 | 47% | 35% | 10^−4 mol · l^−1 |
| Oc1cc(O)cc(CNc2ncnc3c2ncn3C2CCCCO2)c1 (stereo not drawn) | 10^−5 mol · l^−1 | 53% | 10^−6 mol · l^−1 | 45% | 145% | 10^−4 mol · l^−1 |
| COc1cc(O)cc(OC)c1CNc1ncnc2c1ncn2C1CCCO1 (stereo not drawn) | 10^−4 mol · l^−1 | 7% | 10^−5 mol · l^−1 | 31% | 14% | 10^−4 mol · l^−1 |
| Cc1cc(Nc2ncnc3c2ncn3C2CCCO2)ccc1O (stereo not drawn) | 10^−4 mol · l^−1 | 6% | 10^−5 mol · l^−1 | 7% | 4% | 10^−4 mol · l^−1 |
| CCOC(C)n1cnc2c(NCCC(C)CO)ncnc21 (stereo not drawn) | 10^−4 mol · l^−1 | 85% | 10^−4 mol · l^−1 | 95% | 94% | 10^−4 mol · l^−1 |
| CC(CO)CCNc1ncnc2c1ncn2CCCCCl (stereo not drawn) | 10^−4 mol · l^−1 | 81% | 10^−4 mol · l^−1 | 84% | 89% | 10^−4 mol · l^−1 |
| COc1cc(CNc2ncnc3c2ncn3C2CCCO2)cc(OC)c1O (stereo not drawn) | 10^−4 mol · l^−1 | 2% | 10^−5 mol · l^−1 | 27% | 36% | 10^−4 mol · l^−1 |
| COc1cccc(CNc2ncnc3[nH]cnc23)c1O [2-hydroxy-3-methoxybenzylamino / H, reference compound] | 10^−4 mol · l^−1 | 19% | – | – | 34% | 10^−4 mol · l^−1 |
| Oc1ccccc1CNc1ncnc2c1ncn2CCCCCl [2-hydroxybenzylamino / 4-chlorobutyl] | 10^−4 mol · l^−1 | 47.5% | – | – | 47.5% | 10^−4 mol · l^−1 |
| Oc1cc(O)cc(CNc2ncnc3[nH]cnc23)c1 [3,5-dihydroxybenzylamino / H, reference compound] | 10^−5 mol · l^−1 | 53% | 10^−6 mol · l^−1 | 39% | 134% | 10^−4 mol · l^−1 |
| CCOC(C)n1cnc2c(NCc3cccc(O)c3)ncnc21 (stereo not drawn) [3-hydroxybenzylamino / 1-ethoxyethyl] | 10^−4 mol · l^−1 | 108.2% | 10^−4 mol · l^−1 | 109.4% | 108.2% | 10^−4 mol · l^−1 |
| Oc1cccc(CNc2ncnc3c2ncn3CCCCCl)c1 [3-hydroxybenzylamino / 4-chlorobutyl] | 10^−4 mol · l^−1 | 102.5% | 10^−4 mol · l^−1 | 111.6% | 102.5% | 10^−4 mol · l^−1 |
| Cc1cc(CNc2ncnc3c2ncn3C2CCCO2)ccc1O (stereo not drawn) [4-hydroxy-3-methylbenzylamino / tetrahydrofuran-2-yl] | 10^−4 mol · l^−1 | 2% | 10^−5 mol · l^−1 | 12% | 1.4% | 10^−4 mol · l^−1 |
| CC(CO)CCNc1ncnc2[nH]cnc12 (stereo not drawn) [4-hydroxy-3-methylbutylamino / H, reference compound] | 10^−4 mol · l^−1 | 75% | 10^−5 mol · l^−1 | 83.2% | 89% | 10^−4 mol · l^−1 |
| Cc1cc(CNc2ncnc3c2ncn3C2CCCO2)ccc1O (stereo not drawn) [4-hydroxy-5-methylbenzylamino / tetrahydrofuran-2-yl] | 10^−4 mol · l^−1 | 22% | 10^−5 mol · l^−1 | 2% | 17% | 10^−4 mol · l^−1 |
